Measured values from ChEMBL document CHEMBL3885861, “Open TG-GATES”.

Species on record: Rattus norvegicus
Test: Open TG-GATES - Regimen: Single
Assay type: toxicity, organism-based, Sprague-Dawley
Set-up: regimen Single, gender Male, age 6 weeks
Settings: in vivo, po, route gavage; for APTT / Bas / Eos / Fbg / Hb / Ht / Lym / MCH / MCHC / MCV / Mono / Neu / Plat / RBC / Ret / WBC: tissue Blood; for KIDNEY_L / KIDNEY_R / KIDNEY_TOTAL: tissue Kidney; for LIVER: tissue Liver; for ALP / ALT / AST / CRE / DBIL / GLC / IP / K / LDH / Na / PL / RALB / TBIL / TC / TG / TP / gamma-GTP: tissue Plasma
[1] = 0 mg/kg, 3 h, dose level Control
[2] = 0 mg/kg, 6 h, dose level Control
[3] = 0 mg/kg, 9 h, dose level Control
[4] = 0 mg/kg, 24 h, dose level Control

Compound: CN(C)CCC=C1c2ccccc2COc2ccccc21 [DOXEPIN]
- TERMINAL_BW [1]: 197.6 g
- APTT [1]: 20.9 s
- Bas [1]: 0%
- Eos [1]: 0.8%
- Fbg [1]: 250.4 mg/dL
- Hb [1]: 13.6 g/dL
- Ht [1]: 41.4%
- Lym [1]: 77.4%
- MCH [1]: 21.2 pg
- MCHC [1]: 32.9%
- MCV [1]: 64.4 fL
- Mono [1]: 3.6%
- Neu [1]: 17.4%
- Plat [1]: 123.1 x10_4/uL
- RBC [1]: 644 x10_4/ul
- Ret [1]: 8.4%
- WBC [1]: 93.1 x10_2/uL
- KIDNEY_L [1]: 0.9 g
- KIDNEY_R [1]: 0.9 g
- KIDNEY_TOTAL [1]: 1.8 g
- LIVER [1]: 8.7 g
- ALP [1]: 1553 IU/L
- ALT [1]: 44 IU/L
- AST [1]: 77.8 IU/L
- CRE [1]: 0.2 mg/dL
- DBIL [1]: 0.006 mg/dL
- GLC [1]: 169.4 mg/dL
- IP [1]: 8.4 mg/dL
- K [1]: 4.2 meq/L
- LDH [1]: 84.6 IU/L
- Na [1]: 142.4 meq/L
- PL [1]: 140.8 mg/dL
- RALB [1]: 2.5 g/dL
- TBIL [1]: 0.056 mg/dL
- TC [1]: 74.8 mg/dL
- TG [1]: 58.2 mg/dL
- TP [1]: 5.3 g/dL
- gamma-GTP [1]: 1.2 IU/L
- TERMINAL_BW [2]: 196 g
- APTT [2]: 17.7 s
- Bas [2]: 0.2%
- Eos [2]: 0.8%
- Fbg [2]: 265.6 mg/dL
- Hb [2]: 13.6 g/dL
- Ht [2]: 41.4%
- Lym [2]: 79.2%
- MCH [2]: 21.8 pg
- MCHC [2]: 32.8%
- MCV [2]: 66.3 fL
- Mono [2]: 3%
- Neu [2]: 16.2%
- Plat [2]: 112.3 x10_4/uL
- RBC [2]: 624.8 x10_4/ul
- Ret [2]: 9.3%
- WBC [2]: 110.1 x10_2/uL
- KIDNEY_L [2]: 0.9 g
- KIDNEY_R [2]: 0.9 g
- KIDNEY_TOTAL [2]: 1.8 g
- LIVER [2]: 8.1 g
- ALP [2]: 1565.4 IU/L
- ALT [2]: 37.4 IU/L
- AST [2]: 77.2 IU/L
- CRE [2]: 0.2 mg/dL
- DBIL [2]: 0.004 mg/dL
- GLC [2]: 158.4 mg/dL
- IP [2]: 8.9 mg/dL
- K [2]: 4.1 meq/L
- LDH [2]: 80.2 IU/L
- Na [2]: 142.6 meq/L
- PL [2]: 143.6 mg/dL
- RALB [2]: 2.4 g/dL
- TBIL [2]: 0.06 mg/dL
- TC [2]: 76.4 mg/dL
- TG [2]: 49.2 mg/dL
- TP [2]: 5.3 g/dL
- gamma-GTP [2]: 1.2 IU/L
- TERMINAL_BW [3]: 195.7 g
- APTT [3]: 17.2 s
- Bas [3]: 0%
- Eos [3]: 1%
- Fbg [3]: 271.8 mg/dL
- Hb [3]: 13.2 g/dL
- Ht [3]: 39.9%
- Lym [3]: 77.8%
- MCH [3]: 21.5 pg
- MCHC [3]: 32.9%
- MCV [3]: 65.3 fL
- Mono [3]: 2.2%
- Neu [3]: 18.6%
- Plat [3]: 119.3 x10_4/uL
- RBC [3]: 612.4 x10_4/ul
- Ret [3]: 8.9%
- WBC [3]: 87 x10_2/uL
- KIDNEY_L [3]: 0.9 g
- KIDNEY_R [3]: 0.9 g
- KIDNEY_TOTAL [3]: 1.8 g
- LIVER [3]: 7.5 g
- ALP [3]: 1472.4 IU/L
- ALT [3]: 36.6 IU/L
- AST [3]: 71.2 IU/L
- CRE [3]: 0.2 mg/dL
- DBIL [3]: 0 mg/dL
- GLC [3]: 159.2 mg/dL
- IP [3]: 9.7 mg/dL
- K [3]: 3.9 meq/L
- LDH [3]: 95 IU/L
- Na [3]: 143 meq/L
- PL [3]: 125.8 mg/dL
- RALB [3]: 2.4 g/dL
- TBIL [3]: 0.058 mg/dL
- TC [3]: 70.6 mg/dL
- TG [3]: 33.6 mg/dL
- TP [3]: 5.3 g/dL
- gamma-GTP [3]: 1.2 IU/L
- TERMINAL_BW [4]: 214.2 g
- APTT [4]: 18.6 s
- Bas [4]: 0%
- Eos [4]: 1.2%
- Fbg [4]: 269 mg/dL
- Hb [4]: 13 g/dL
- Ht [4]: 38.8%
- Lym [4]: 76.4%
- MCH [4]: 21.7 pg
- MCHC [4]: 33.5%
- MCV [4]: 64.8 fL
- Mono [4]: 3%
- Neu [4]: 19%
- Plat [4]: 116.4 x10_4/uL
- RBC [4]: 600.2 x10_4/ul
- Ret [4]: 8.1%
- WBC [4]: 94.8 x10_2/uL
- KIDNEY_L [4]: 1 g
- KIDNEY_R [4]: 0.9 g
- KIDNEY_TOTAL [4]: 1.9 g
- ALP [4]: 2073 IU/L
- ALT [4]: 37.8 IU/L
- AST [4]: 75.6 IU/L
- CRE [4]: 0.2 mg/dL
- DBIL [4]: 0.004 mg/dL
- GLC [4]: 173.2 mg/dL
- IP [4]: 7.2 mg/dL
- K [4]: 4 meq/L
- LDH [4]: 106.6 IU/L
- Na [4]: 141.6 meq/L
- PL [4]: 153.8 mg/dL
- RALB [4]: 2.5 g/dL
- TBIL [4]: 0.04 mg/dL
- TC [4]: 80.2 mg/dL
- TG [4]: 89 mg/dL
- TP [4]: 5.6 g/dL
- gamma-GTP [4]: 1 IU/L
- TERMINAL_BW (100 mg/kg, 3 h, dose level Low): 198.2 g
- APTT (100 mg/kg, 3 h, dose level Low): 19.4 s
- Bas (100 mg/kg, 3 h, dose level Low): 0%
- Eos (100 mg/kg, 3 h, dose level Low): 1%
- Fbg (100 mg/kg, 3 h, dose level Low): 282.4 mg/dL
- Hb (100 mg/kg, 3 h, dose level Low): 13.1 g/dL
- Ht (100 mg/kg, 3 h, dose level Low): 39.8%
- Lym (100 mg/kg, 3 h, dose level Low): 79.6%
- MCH (100 mg/kg, 3 h, dose level Low): 21.2 pg
- MCHC (100 mg/kg, 3 h, dose level Low): 32.9%
- MCV (100 mg/kg, 3 h, dose level Low): 64.4 fL
- Mono (100 mg/kg, 3 h, dose level Low): 3%
- Neu (100 mg/kg, 3 h, dose level Low): 16%
- Plat (100 mg/kg, 3 h, dose level Low): 113.2 x10_4/uL
- RBC (100 mg/kg, 3 h, dose level Low): 619.4 x10_4/ul
- Ret (100 mg/kg, 3 h, dose level Low): 8.6%
- WBC (100 mg/kg, 3 h, dose level Low): 80.4 x10_2/uL
- KIDNEY_L (100 mg/kg, 3 h, dose level Low): 0.9 g
- KIDNEY_R (100 mg/kg, 3 h, dose level Low): 0.9 g
- KIDNEY_TOTAL (100 mg/kg, 3 h, dose level Low): 1.8 g
- LIVER (100 mg/kg, 3 h, dose level Low): 8.6 g
- ALP (100 mg/kg, 3 h, dose level Low): 1626.2 IU/L
- ALT (100 mg/kg, 3 h, dose level Low): 39.4 IU/L
- AST (100 mg/kg, 3 h, dose level Low): 69.2 IU/L
- CRE (100 mg/kg, 3 h, dose level Low): 0.2 mg/dL
- DBIL (100 mg/kg, 3 h, dose level Low): 0 mg/dL
- GLC (100 mg/kg, 3 h, dose level Low): 182 mg/dL
- IP (100 mg/kg, 3 h, dose level Low): 8.9 mg/dL
- K (100 mg/kg, 3 h, dose level Low): 4.1 meq/L
- LDH (100 mg/kg, 3 h, dose level Low): 82 IU/L
- Na (100 mg/kg, 3 h, dose level Low): 143.8 meq/L
- PL (100 mg/kg, 3 h, dose level Low): 159.6 mg/dL
- RALB (100 mg/kg, 3 h, dose level Low): 2.5 g/dL
- TBIL (100 mg/kg, 3 h, dose level Low): 0.046 mg/dL
- TC (100 mg/kg, 3 h, dose level Low): 83.8 mg/dL
- TG (100 mg/kg, 3 h, dose level Low): 57 mg/dL
- TP (100 mg/kg, 3 h, dose level Low): 5.4 g/dL
- gamma-GTP (100 mg/kg, 3 h, dose level Low): 1 IU/L
- TERMINAL_BW (100 mg/kg, 6 h, dose level Low): 197.6 g
- APTT (100 mg/kg, 6 h, dose level Low): 16.2 s
- Bas (100 mg/kg, 6 h, dose level Low): 0%
- Eos (100 mg/kg, 6 h, dose level Low): 1%
- Fbg (100 mg/kg, 6 h, dose level Low): 282.2 mg/dL
- Hb (100 mg/kg, 6 h, dose level Low): 13.1 g/dL
- Ht (100 mg/kg, 6 h, dose level Low): 40.1%
- Lym (100 mg/kg, 6 h, dose level Low): 75.8%
- MCH (100 mg/kg, 6 h, dose level Low): 21.7 pg
- MCHC (100 mg/kg, 6 h, dose level Low): 32.8%
- MCV (100 mg/kg, 6 h, dose level Low): 66.4 fL
- Mono (100 mg/kg, 6 h, dose level Low): 2.4%
- Neu (100 mg/kg, 6 h, dose level Low): 20.2%
- Plat (100 mg/kg, 6 h, dose level Low): 119.3 x10_4/uL
- RBC (100 mg/kg, 6 h, dose level Low): 603.6 x10_4/ul
- Ret (100 mg/kg, 6 h, dose level Low): 9.7%
- WBC (100 mg/kg, 6 h, dose level Low): 94.4 x10_2/uL
- KIDNEY_L (100 mg/kg, 6 h, dose level Low): 0.9 g
- KIDNEY_R (100 mg/kg, 6 h, dose level Low): 0.9 g
- KIDNEY_TOTAL (100 mg/kg, 6 h, dose level Low): 1.8 g
- LIVER (100 mg/kg, 6 h, dose level Low): 8.1 g
- ALP (100 mg/kg, 6 h, dose level Low): 1532.8 IU/L
- ALT (100 mg/kg, 6 h, dose level Low): 37.4 IU/L
- AST (100 mg/kg, 6 h, dose level Low): 71.4 IU/L
- CRE (100 mg/kg, 6 h, dose level Low): 0.2 mg/dL
- DBIL (100 mg/kg, 6 h, dose level Low): 0.004 mg/dL
- GLC (100 mg/kg, 6 h, dose level Low): 175.2 mg/dL
- IP (100 mg/kg, 6 h, dose level Low): 9.5 mg/dL
- K (100 mg/kg, 6 h, dose level Low): 4 meq/L
- LDH (100 mg/kg, 6 h, dose level Low): 71.6 IU/L
- Na (100 mg/kg, 6 h, dose level Low): 144.6 meq/L
- PL (100 mg/kg, 6 h, dose level Low): 140.6 mg/dL
- RALB (100 mg/kg, 6 h, dose level Low): 2.5 g/dL
- TBIL (100 mg/kg, 6 h, dose level Low): 0.054 mg/dL
- TC (100 mg/kg, 6 h, dose level Low): 79.4 mg/dL
- TG (100 mg/kg, 6 h, dose level Low): 27.2 mg/dL
- TP (100 mg/kg, 6 h, dose level Low): 5.3 g/dL
- gamma-GTP (100 mg/kg, 6 h, dose level Low): 1 IU/L
